In US20260070899A1, “N-(2-(4-CYANOTHIAZOLIDIN-3-YL)-2-OXOETHYL)-QUINOLINE-4-CARBOXAMIDES” (AstraZeneca AB, priority 2022, published 2026):
pIC50, pKd: −log10 of the molar value. In brackets after ≈: the same amount, converted by molar mass.

Columns and labels:
[1] = Metabolic stability in human liver microsomes (HLM); format: in vitro ADME; conditions: n = 1 or average (n = 2-3)
Method: Metabolic stability in HLM was measured as described in J Comput Aided Mol Des 2015, 29, 795.

[2] = system: Rat Hepatocytes (rHep); test: Metabolic stability in rat hepatocytes (rHep); format: in vitro ADME; conditions: n = 1 or geometric mean (n = 2-3)
Method: Metabolic stability in rat hepatocytes was measured as described in J Comput Aided Mol Des 2015, 29, 795.

[3] = Kinetic solubility; format: physicochemical; conditions: kinetic from dmso stock, n = 1 or average (n = 2-4)
Method: Kinetic solubility was measured as described in Comput Aided Mol Des 2015, 29, 795.

[4] = molecular target: T1, hFAP (M39-A757) (Homo sapiens, UniProt Q12884); test: biochemical
T1 sequence (Q12884 39-757): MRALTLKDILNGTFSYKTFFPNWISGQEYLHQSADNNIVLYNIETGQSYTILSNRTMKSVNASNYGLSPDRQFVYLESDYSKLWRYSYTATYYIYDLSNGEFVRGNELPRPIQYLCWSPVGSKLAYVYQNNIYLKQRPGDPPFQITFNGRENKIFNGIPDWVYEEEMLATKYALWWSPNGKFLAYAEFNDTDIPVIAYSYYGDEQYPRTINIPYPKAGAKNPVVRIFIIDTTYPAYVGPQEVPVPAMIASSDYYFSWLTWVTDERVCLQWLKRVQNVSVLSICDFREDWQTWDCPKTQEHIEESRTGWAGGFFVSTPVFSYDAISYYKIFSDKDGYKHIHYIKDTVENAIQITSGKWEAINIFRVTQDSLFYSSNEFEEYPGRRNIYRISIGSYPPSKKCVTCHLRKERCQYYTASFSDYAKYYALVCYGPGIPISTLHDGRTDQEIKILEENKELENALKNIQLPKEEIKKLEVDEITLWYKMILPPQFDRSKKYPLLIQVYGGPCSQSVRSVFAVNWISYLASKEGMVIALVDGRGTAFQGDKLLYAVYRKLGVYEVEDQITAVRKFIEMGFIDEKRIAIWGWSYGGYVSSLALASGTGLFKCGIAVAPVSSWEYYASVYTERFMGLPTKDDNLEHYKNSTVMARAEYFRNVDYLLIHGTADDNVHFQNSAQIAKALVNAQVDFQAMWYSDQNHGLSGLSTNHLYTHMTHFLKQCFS
Method: Compounds were tested in a direct binding assay using 8K surface plasmon resonance biosensor (GE Healthcare) at 20° C. Immobilization of hFAP (M39-A757) on a CMD200M sensor chip (Xantec) was performed using standard amine coupling procedure in immobilization buffer (10 mM HEPES, 150 mM NaCl, 0.05% Tween20, pH 7.4). The surface was washed with 10 mM aq NaOH, 1M NaCl before being activated with EDC/NHS (GE Healthcare), followed by immobilization of hFAP (in 10 mM Acetate pH 5.0). Finally, the surface was deactivated by ethanolamine. Immobilization levels of hFAP were around 4000-6000 RU. The reference spot was treated as described, omitting the injection of hFAP. Compound concentration series were injected over the immobilized protein in increasing concentrations (2-500 nM) using single cycle kinetics in running buffer (20 mM TRIS, 150 mM NaCl, 0.05% Tween20, 1% DMSO, pH 7.4). Interaction models were fitted globally to the experimental traces, enabling determination of kon, koff and Kd.

[5] = molecular target: T2, Prolyl endopeptidase, Prolyl Oligopeptidase (hPREP) (Homo sapiens, UniProt P48147); test: biochemical
T2 sequence (P48147 1-710): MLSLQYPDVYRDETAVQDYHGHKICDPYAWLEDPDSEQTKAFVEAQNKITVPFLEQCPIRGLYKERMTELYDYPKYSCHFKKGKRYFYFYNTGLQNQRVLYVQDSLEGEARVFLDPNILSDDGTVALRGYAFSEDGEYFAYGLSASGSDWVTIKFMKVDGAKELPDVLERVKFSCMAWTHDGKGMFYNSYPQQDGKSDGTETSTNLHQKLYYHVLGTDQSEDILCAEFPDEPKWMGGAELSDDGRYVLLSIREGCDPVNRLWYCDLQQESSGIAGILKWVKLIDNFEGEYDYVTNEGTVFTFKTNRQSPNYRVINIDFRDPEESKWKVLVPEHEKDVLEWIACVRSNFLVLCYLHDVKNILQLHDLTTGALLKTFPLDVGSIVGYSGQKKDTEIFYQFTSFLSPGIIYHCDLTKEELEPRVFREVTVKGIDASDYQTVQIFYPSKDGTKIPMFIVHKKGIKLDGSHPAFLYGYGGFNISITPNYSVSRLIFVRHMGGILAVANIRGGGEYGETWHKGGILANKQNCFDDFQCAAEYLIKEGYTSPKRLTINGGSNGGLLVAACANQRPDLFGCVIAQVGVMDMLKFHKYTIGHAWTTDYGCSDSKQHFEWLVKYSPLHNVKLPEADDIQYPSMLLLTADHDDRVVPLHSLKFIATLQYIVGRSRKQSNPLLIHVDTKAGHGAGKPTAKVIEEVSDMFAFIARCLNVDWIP

[6] = molecular target: T3, hFAP (Homo sapiens, UniProt Q12884); test: biochemical
T3 sequence (Q12884 38-760): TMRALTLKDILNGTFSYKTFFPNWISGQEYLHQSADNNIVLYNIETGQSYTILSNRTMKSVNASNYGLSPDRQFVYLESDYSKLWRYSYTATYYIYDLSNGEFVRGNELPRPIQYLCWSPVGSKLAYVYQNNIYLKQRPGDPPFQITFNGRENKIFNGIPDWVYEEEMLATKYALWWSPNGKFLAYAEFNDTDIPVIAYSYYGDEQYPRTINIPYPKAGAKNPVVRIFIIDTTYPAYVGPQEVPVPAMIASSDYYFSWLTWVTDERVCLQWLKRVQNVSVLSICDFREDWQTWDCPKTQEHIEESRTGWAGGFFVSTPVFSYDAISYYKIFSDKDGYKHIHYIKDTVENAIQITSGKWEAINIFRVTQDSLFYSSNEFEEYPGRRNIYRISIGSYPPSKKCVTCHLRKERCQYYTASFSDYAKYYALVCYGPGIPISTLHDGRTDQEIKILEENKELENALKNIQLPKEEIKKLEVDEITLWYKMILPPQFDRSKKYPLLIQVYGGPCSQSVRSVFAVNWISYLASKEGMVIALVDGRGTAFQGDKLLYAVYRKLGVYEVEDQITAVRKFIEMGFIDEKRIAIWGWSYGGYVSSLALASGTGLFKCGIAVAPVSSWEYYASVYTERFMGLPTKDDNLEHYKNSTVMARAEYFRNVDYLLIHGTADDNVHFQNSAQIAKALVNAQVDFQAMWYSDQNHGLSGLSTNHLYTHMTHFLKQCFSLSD
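For pKd in this document: surface plasmon resonance direct binding to hFAP amine-coupled on a sensor chip, rising compound concentrations by single cycle kinetics, Kd from global fit of interaction models.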

microsomal CLint [1] [µL/min/mg] | rHeps CLint [2] [μL/min/1E6] | solubility [3] [µM] | pKd [4] | pIC50 [5] | pIC50 [6] | SMILES
> 300 | 27 | 240 (≈ 112 µg/mL) | 9.92 | 6.62 | – | CC(c1ccc2nccc(C(=O)NCC(=O)N3CSC[C@H]3C#N)c2c1)c1ccc(Cl)cn1 (mixture of isomers) [Example 48, 6-((RS)-1-(5-Chloropyridin-2-yl)ethyl)-N-(2-((R)-4-cyanothiazolidin-3-yl)-2-oxoethyl)quinoline-4-carboxamide]
46 | 24 | 220 (≈ 95.8 µg/mL) | 9.89 | 6.96 | – | Cc1cc(C(C)c2ccc3nccc(C(=O)NCC(=O)N4CSC[C@H]4C#N)c3c2)on1 (mixture of isomers) [Example 49, N-(2-((R)-4-Cyanothiazolidin-3-yl)-2-oxoethyl)-6-((RS)-1-(3-methylisoxazol-5-yl)ethyl)quinoline-4-carboxamide]
210 | 49 | 120 (≈ 59.9 µg/mL) | 9.70 | 6.49 | – | CC(c1ccnc(C(F)(F)F)c1)c1ccc2nccc(C(=O)NCC(=O)N3CSC[C@H]3C#N)c2c1 (mixture of isomers) [Example 52, N-(2-((R)-4-Cyanothiazolidin-3-yl)-2-oxoethyl)-6-((RS)-1-(2-(trifluoromethyl)pyridin-4-yl)ethyl)quinoline-4-carboxamide]
77 | 23 | > 1000 | – | 6.19 | – | CC1(C)CC(c2ccc3nccc(C(=O)NCC(=O)N4CSC[C@H]4C#N)c3c2)CO1 (mixture of isomers) [Example 61, N-(2-((R)-4-Cyanothiazolidin-3-yl)-2-oxoethyl)-6-(5,5-dimethyltetrahydrofuran-3-yl)quinoline-4-carboxamide]
16 | 11 | 880 (≈ 349 µg/mL) | 9.96 | 7.06 | 9.52 | N#C[C@@H]1CSCN1C(=O)CNC(=O)c1ccnc2ccc(C3CCOC3)cc12 (mixture of isomers) [Example 67, N-(2-((R)-4-Cyanothiazolidin-3-yl)-2-oxoethyl)-6-((RS)-tetrahydrofuran-3-yl)quinoline-4-carboxamide]
36 | 5.9 | 490 (≈ 199 µg/mL) | 10.28 | 6.72 | – | N#C[C@@H]1CSCN1C(=O)CNC(=O)c1ccnc2ccc(OCC(F)F)cc12 [Example 2, (R)—N-(2-(4-Cyanothiazolidin-3-yl)-2-oxoethyl)-6-(2,2-difluoroethoxy)quinoline-4-carboxamide]
40 | 9.1 | 550 (≈ 231 µg/mL) | – | 6.82 | – | N#C[C@@H]1CSCN1C(=O)CNC(=O)c1ccnc2ccc(OC(CF)CF)cc12 [Example 7, (R)—N-(2-(4-Cyanothiazolidin-3-yl)-2-oxoethyl)-6-((1,3-difluoropropan-2-yl)oxy)quinoline-4-carboxamide]
45 | 11 | 8.3 (≈ 3.71 µg/mL) | – | 5.92 | – | N#C[C@@H]1CSCN1C(=O)CNC(=O)c1ccnc2ccc(OCC3CC(F)(F)C3)cc12 [Example 8, (R)—N-(2-(4-Cyanothiazolidin-3-yl)-2-oxoethyl)-6-((3,3-difluorocyclobutyl)methoxy)quinoline-4-carboxamide]
> 300 | 140 | 78 (≈ 39.9 µg/mL) | 9.92 | 6.34 | – | N#C[C@@H]1CSCN1C(=O)CNC(=O)c1ccnc2ccc(C3(c4ccnc(C(F)(F)F)c4)CC3)cc12 [Example 13, (R)—N-(2-(4-Cyanothiazolidin-3-yl)-2-oxoethyl)-6-(1-(2-(trifluoromethyl)pyridin-4-yl)cyclopropyl)quinoline-4-carboxamide]
25 | 11 | 420 (≈ 165 µg/mL) | 10.34 | 8.08 | 10.10 | N#C[C@@H]1CSCN1C(=O)CNC(=O)c1ccnc2ccc(-c3ccoc3)cc12 [Example 14, (R)—N-(2-(4-Cyanothiazolidin-3-yl)-2-oxoethyl)-6-(furan-3-yl)quinoline-4-carboxamide]
100 | 7.9 | 500 (≈ 212 µg/mL) | 6.85 | 8.08 | – | CC1(c2ccc3nccc(C(=O)NCC(=O)N4CSC[C@H]4C#N)c3c2)CCOCC1 [Example 21, (R)—N-(2-(4-Cyanothiazolidin-3-yl)-2-oxoethyl)-6-(4-methyl-tetrahydro-2H-pyran-4-yl)quinoline-4-carboxamide]
70 | 21 | 250 (≈ 112 µg/mL) | 9.89 | 6.82 | – | Cc1cc(C2(c3ccc4nccc(C(=O)NCC(=O)N5CSC[C@H]5C#N)c4c3)CC2)no1 [Example 45, (R)—N-(2-(4-Cyanothiazolidin-3-yl)-2-oxoethyl)-6-(1-(5-methylisoxazol-3-yl)cyclopropyl)quinoline-4-carboxamide]
36 | 45 | 190 (≈ 76.8 µg/mL) | – | 8.19 | – | CC(F)(F)Cc1ccc2nccc(C(=O)NCC(=O)N3CSC[C@H]3C#N)c2c1 [Example 53, (R)—N-(2-(4-Cyanothiazolidin-3-yl)-2-oxoethyl)-6-(2,2-difluoropropyl)quinoline-4-carboxamide]
77 | 17 | 700 (≈ 296 µg/mL) | – | 7.19 | – | N#C[C@@H]1CSCN1C(=O)CNC(=O)c1ccnc2ccc(CCC(F)(F)F)cc12 [Example 58, (R)—N-(2-(4-Cyanothiazolidin-3-yl)-2-oxoethyl)-6-(3,3,3-trifluoropropyl)quinoline-4-carboxamide]
> 300 | 110 | 180 (≈ 78 µg/mL) | – | 6.54 | – | N#C[C@@H]1CSCN1C(=O)CNC(=O)c1ccnc2ccc(C3(C#N)CCCCC3)cc12 [Example 60, (R)-6-(1-Cyanocyclohexyl)-N-(2-(4-cyanothiazolidin-3-yl)-2-oxoethyl)quinoline-4-carboxamide]
